Results reported in ChEMBL document CHEMBL5584215, “Biological evaluation of indolactams for in vitro bryostatin 1-like activity” (Bioorg Med Chem Lett, 2024).
pKi: −log10 of the molar value. Each block holds one molecule with its values, some of them ahead of it. Calls of active or inactive are those of the source. No cut-off for these calls is given here.

Assays:
U-937 [1] = assay: Induction of cell attachment in human U-937 cells at more than 10 nM incubated for 72 hrs relative to control; format: functional
U-937 [2] = assay: Growth inhibition of human U-937 cells assessed as reduction in total cell number at 100 nM incubated for 72 hrs; format: functional; conditions: read-out: GI
U-937 [3] = assay: Induction of cell attachment in human U-937 cells at 100 nM incubated for 72 hrs relative to control; format: functional
U-937 [4] = assay: Induction of cell attachment in human U-937 cells at 1000 nM incubated for 72 hrs relative to control; format: functional
[5] = target: Protein kinase C delta type (Homo sapiens, UniProt Q05655); assay: Binding affinity to PKCdelta (unknown origin) assessed as inhibition constant
Chain of Protein kinase C delta type (Q05655 whole entry): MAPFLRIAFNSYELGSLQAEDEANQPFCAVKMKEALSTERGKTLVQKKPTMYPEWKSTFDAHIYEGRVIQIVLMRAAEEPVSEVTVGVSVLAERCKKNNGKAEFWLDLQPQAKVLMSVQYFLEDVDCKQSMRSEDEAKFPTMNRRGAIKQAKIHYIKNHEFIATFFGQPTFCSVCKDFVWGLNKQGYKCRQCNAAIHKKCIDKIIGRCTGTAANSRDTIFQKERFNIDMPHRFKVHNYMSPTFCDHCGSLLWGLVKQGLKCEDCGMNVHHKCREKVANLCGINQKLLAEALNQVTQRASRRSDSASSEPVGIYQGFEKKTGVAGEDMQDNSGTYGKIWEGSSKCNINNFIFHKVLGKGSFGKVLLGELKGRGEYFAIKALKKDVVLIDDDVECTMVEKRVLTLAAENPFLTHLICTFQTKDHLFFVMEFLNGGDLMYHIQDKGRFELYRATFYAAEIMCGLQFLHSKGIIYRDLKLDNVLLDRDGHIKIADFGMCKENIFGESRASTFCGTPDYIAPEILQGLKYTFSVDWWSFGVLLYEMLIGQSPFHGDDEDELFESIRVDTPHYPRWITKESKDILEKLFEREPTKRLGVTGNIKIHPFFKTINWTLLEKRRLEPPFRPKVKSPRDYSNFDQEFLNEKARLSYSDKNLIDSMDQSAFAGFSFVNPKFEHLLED

U-937 [6] = assay: Induction of cell attachment in human U-937 cells at 1 to 100 nM incubated for 72 hrs; format: functional, cell-based; conditions: dose 1-100 nM
U-937 [7] = assay: Induction of cell attachment in human U-937 cells at 1 to 100 nM incubated for 72 hrs relative to control; format: functional; conditions: dose 1-100 nM
LNCaP [8] = assay: Growth inhibition of human LNCaP cells at 5 to 1500 nM incubated for 72 hrs; format: functional, cell-based; conditions: dose 5-1500 nM
U-937 [9] = assay: Induction of cell attachment in human U-937 cells at 100 nM incubated for 72 hrs; format: functional, cell-based
U-937 [10] = assay: Growth inhibition of human U-937 cells assessed as reduction in total cell number at 1000 nM incubated for 72 hrs; format: functional, cell-based
U-937 [11] = assay: Growth inhibition of human U-937 cells assessed as reduction in total cell number at 1 to 10 nM incubated for 72 hrs; format: functional, cell-based; conditions: dose 1-10 nM
LNCaP [12] = assay: Growth inhibition of human LNCaP cells at 1.5 uM incubated for 72 hrs; format: functional, cell-based
U-937 [13] = assay: Induction of cell attachment in human U-937 cells at 1 nM incubated for 72 hrs relative to control; format: functional
U-937 [14] = assay: Growth inhibition of human U-937 cells assessed as reduction in total cell number at 1 nM incubated for 72 hrs; format: functional; conditions: read-out: GI
LNCaP [15] = assay: Growth inhibition of human LNCaP cells at < 10 nM incubated for 72 hrs; format: functional, cell-based

SMILES: C=CC(C)(C)c1ccc2c3c(c[nH]c13)C[C@@H](CO)NC(=O)[C@H](C(C)C)N2C [PENDOLMYCIN]
Activity (U-937 [1]): >60%

SMILES: CC(C)[C@H]1C(=O)N[C@H](CO)Cc2c[nH]c3cccc(c23)N1C [INDOLACTUM]
inhibition of growth at 0.1 µM (U-937 [2]): 25.7%
Activity (U-937 [3]): 44.2%
Activity (U-937 [4]): 70.3%

pKi [5]: 7.03
SMILES: CC(=O)n1cc2c3c(cccc31)N(C)[C@@H](C(C)C)C(=O)N[C@H](CO)C2
Activity (U-937 [6]): inactive
Activity (U-937 [7]): <2%
growth inhibition (GI) (LNCaP [8]): Active
Activity (U-937 [9]): Active

SMILES: CCC/C=C/C=C/C(=O)O[C@H]1/C(=C/C(=O)OC)C[C@H]2C[C@H]([C@@H](C)O)OC(=O)C[C@H](O)C[C@@H]3C[C@H](OC(C)=O)C(C)(C)[C@](O)(C[C@@H]4C/C(=C/C(=O)OC)C[C@H](/C=C/C(C)(C)[C@]1(O)O2)O4)O3 [BRYOSTATIN 1]
growth inhibition (GI) (U-937 [10]): Active
growth inhibition (GI) (U-937 [11]): inactive
growth inhibition (GI) (LNCaP [12]): inactive
Activity (U-937 [4]): 1.8%

SMILES: C=C[C@@](C)(CCC=C(C)C)c1ccc2c3c(c[nH]c13)C[C@@H](CO)NC(=O)[C@H](C(C)C)N2C
Activity (U-937 [1]): >60%

SMILES: CCCCCCCCCCCCCC(=O)O[C@H]1[C@H](C)[C@]2(O)[C@H](C=C(CO)C[C@@]3(O)C(=O)C(C)=C[C@H]23)[C@H]2C(C)(C)[C@@]12OC(C)=O
Activity (U-937 [13]): 85.4%
inhibition of growth at 0.001 µM (U-937 [14]): 21.5%
growth inhibition (GI) (LNCaP [15]): Active

pKi [5]: 7.49
SMILES: CC(C)[C@H]1C(=O)N[C@H](CO)Cc2cn(C(C)C)c3cccc(c23)N1C
Activity (U-937 [6]): inactive
Activity (U-937 [7]): <2%
growth inhibition (GI) (LNCaP [8]): Active
Activity (U-937 [9]): Active
Activity (U-937 [4]): 6.5%
